These molecules were tested against T1, Cdc7 (BEV coexpressed huCDC7/DBF4) (Homo sapiens, UniProt O00311) (assay: Cdc7 enzyme inhibition assay ([33P]ATP, biotinylated peptide substrate, FlashPlate)). Settings: Table 3; enzyme inhibition data (Ki).
T1 construct: made in house; host or cells: BEV (baculovirus expression vector) co-expression; insect cells are implied but no cell line is named
Assay type: biochemical
Description: Cdc7 (BEV coexpressed huCDC7/DBF4) is prepared internally. Cdc7 assays are conducted as follows with final concentrations as listed. […] Reactions are quenched after 1 hr by the addition of 90 μL stop buffer (50 mM EDTA, 2M NaCl). […] (Ki) for exemplary compounds.

T1 sequence (O00311 whole entry): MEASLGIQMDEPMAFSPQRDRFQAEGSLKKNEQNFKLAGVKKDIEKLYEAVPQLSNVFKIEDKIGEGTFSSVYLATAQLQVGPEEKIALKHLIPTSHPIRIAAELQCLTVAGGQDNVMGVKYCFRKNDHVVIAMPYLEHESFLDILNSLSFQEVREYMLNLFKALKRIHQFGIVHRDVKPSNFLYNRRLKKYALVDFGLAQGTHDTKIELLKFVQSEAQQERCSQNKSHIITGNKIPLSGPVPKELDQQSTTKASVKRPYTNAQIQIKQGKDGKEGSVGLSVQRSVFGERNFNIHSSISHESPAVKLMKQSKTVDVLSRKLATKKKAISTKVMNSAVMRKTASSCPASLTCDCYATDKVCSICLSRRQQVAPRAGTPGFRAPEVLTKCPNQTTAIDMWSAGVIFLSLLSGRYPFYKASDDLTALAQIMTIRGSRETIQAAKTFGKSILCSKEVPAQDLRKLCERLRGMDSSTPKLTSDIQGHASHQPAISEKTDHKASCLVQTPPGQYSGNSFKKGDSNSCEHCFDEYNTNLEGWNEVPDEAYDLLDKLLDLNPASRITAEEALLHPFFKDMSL
T1 sequence (Q9UBU7 whole entry partner): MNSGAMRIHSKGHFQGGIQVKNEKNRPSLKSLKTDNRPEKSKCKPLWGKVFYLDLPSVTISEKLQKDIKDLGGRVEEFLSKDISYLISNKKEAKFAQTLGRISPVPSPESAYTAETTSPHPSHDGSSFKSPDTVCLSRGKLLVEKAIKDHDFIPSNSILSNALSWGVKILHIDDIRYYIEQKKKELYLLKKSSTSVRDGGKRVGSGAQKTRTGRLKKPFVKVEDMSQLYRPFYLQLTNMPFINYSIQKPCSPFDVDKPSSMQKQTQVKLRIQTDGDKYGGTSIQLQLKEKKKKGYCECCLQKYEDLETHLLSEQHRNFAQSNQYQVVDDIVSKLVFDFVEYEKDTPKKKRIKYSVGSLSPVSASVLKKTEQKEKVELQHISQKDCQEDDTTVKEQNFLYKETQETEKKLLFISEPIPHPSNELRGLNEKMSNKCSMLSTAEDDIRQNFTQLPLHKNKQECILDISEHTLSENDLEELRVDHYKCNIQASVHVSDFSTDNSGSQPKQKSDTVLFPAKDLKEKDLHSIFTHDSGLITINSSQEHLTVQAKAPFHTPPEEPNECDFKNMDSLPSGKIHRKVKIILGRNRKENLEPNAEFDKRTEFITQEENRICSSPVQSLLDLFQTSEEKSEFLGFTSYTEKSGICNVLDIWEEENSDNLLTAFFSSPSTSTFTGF

With `Clc1cc(-c2c[nH]c3ncccc23)cc(N[C@H]2CC[C@H](NC3CCN(C4CCCCC4)CC3)CC2)n1` [Example 157, trans-N-[6-chloro-4-(1H-pyrrolo[2,3-b]pyridin-3-yl)pyridin-2-yl]-N′-(1-cyclohexylpiperidin-4-yl)cyclohexane-1,4-diamine] as the molecule, how does the Ki read?
Its Ki is < 10 nM.

With `Clc1cc(-c2c[nH]c3ncccc23)cc(NC2CCC(C3CCNCC3)CC2)n1` (stereo not drawn) [Example 159, 6-chloro-N-[4-(piperidin-4-yl)cyclohexyl]-4-(1H-pyrrolo[2,3-b]pyridin-3-yl)pyridin-2-amine] as the molecule, how does the Ki read?
Its Ki is < 10 nM.

How did the Ki turn out when `O=C(N[C@H]1CC[C@H](Nc2cc(-c3c[nH]c4ncccc34)cc(Cl)n2)CC1)C1CNC1` [Example 160, N-(trans-4-{[6-chloro-4-(1H-pyrrolo[2,3-b]pyridin-3-yl)pyridin-2-yl]amino}cyclohexyl)azetidine-3-carboxamide] was run?
Its Ki is < 10 nM.

For `CC(=O)NC1CCC(N[C@H]2CC[C@H](Nc3cc(-c4c[nH]c5ncccc45)cc(Cl)n3)CC2)CC1` (stereo partly drawn) [Example 161, N-{4-[(trans-4-{[6-chloro-4-(1H-pyrrolo[2,3-b]pyridin-3-yl)pyridin-2-yl]amino}cyclohexyl)amino]cyclohexyl}acetamide], which Ki is on record?
The Ki was < 10 nM.

`O=C(NC1CCC(N[C@H]2CC[C@H](Nc3cc(-c4c[nH]c5ncccc45)cc(Cl)n3)CC2)CC1)C1CC1` (stereo partly drawn) [Example 162, N-{4-[(trans-4-{[6-chloro-4-(1H-pyrrolo[2,3-b]pyridin-3-yl)pyridin-2-yl]amino}cyclohexyl)amino]cyclohexyl}cyclopropanecarboxamide] was tested. Which Ki did it give?
The Ki was < 10 nM.

Which Ki does the source give for `CC(=O)N1CCC(C2CCC(Nc3cc(-c4c[nH]c5ncccc45)cc(Cl)n3)CC2)CC1` (stereo not drawn) [Example 163, 1-[4-(4-{[6-chloro-4-(1H-pyrrolo[2,3-b]pyridin-3-yl)pyridin-2-yl]amino}cyclohexyl)piperidin-1-yl]ethanone] here?
The Ki was < 10 nM.

For `CC(=O)NCCS(=O)(=O)NC1CCCC(Nc2cc(-c3c[nH]c4ncccc34)cc(Cl)n2)C1` (stereo not drawn) [Example 164, N-{2-[(3-{[6-chloro-4-(1H-pyrrolo[2,3-b]pyridin-3-yl)pyridin-2-yl]amino}cyclohexyl)sulfamoyl]ethyl}acetamide], which Ki is on record?
The Ki was < 10 nM.

Which Ki does the source give for `O=C(NCCS(=O)(=O)NC1CCCC(Nc2cc(-c3c[nH]c4ncccc34)cc(Cl)n2)C1)C1CC1` (stereo not drawn) [Example 165, N-{2-[(3-{[6-chloro-4-(1H-pyrrolo[2,3-b]pyridin-3-yl)pyridin-2-yl]amino}cyclohexyl)sulfamoyl]ethyl}cyclopropanecarboxamide] here?
Its Ki is < 10 nM.

`O=C(N[C@H]1CC[C@H](Nc2cc(-c3c[nH]c4ncccc34)cc(Cl)n2)CC1)C1CN(Cc2ccc(F)cc2)C1` [Example 166, N-(trans-4-{[6-chloro-4-(1H-pyrrolo[2,3-b]pyridin-3-yl)pyridin-2-yl]amino}cyclohexyl)-1-(4-fluorobenzyl)azetidine-3-carboxamide] was tested. Which Ki did it give?
The Ki was < 10 nM.

Which Ki does the source give for `CS(=O)(=O)N1CC(C(=O)N[C@H]2CC[C@H](Nc3cc(-c4c[nH]c5ncccc45)cc(Cl)n3)CC2)C1` [Example 167, N-(trans-4-{[6-chloro-4-(1H-pyrrolo[2,3-b]pyridin-3-yl)pyridin-2-yl]amino}cyclohexyl)-1-(methylsulfonyl)azetidine-3-carboxamide] here?
The Ki was < 10 nM.

Which Ki does the source give for `Clc1cc(-c2c[nH]c3nccc(Cl)c23)cc(NC2CCCCC2)n1` [Example 168, 6-chloro-4-(4-chloro-1H-pyrrolo[2,3-b]pyridin-3-yl)-N-cyclohexylpyridin-2-amine] here?
The Ki was < 10 nM.

Which Ki does the source give for `O=S(=O)(CCNC1CCC1)NC1CCCC(Nc2cc(-c3c[nH]c4ncccc34)cc(Cl)n2)C1` (stereo not drawn) [Example 170, N-(3-{[6-chloro-4-(1H-pyrrolo[2,3-b]pyridin-3-yl)pyridin-2-yl]amino}cyclohexyl)-2-(cyclobutylamino)ethanesulfonamide] here?
Its Ki is < 10 nM.

For `Clc1cc(-c2c[nH]c3ncc(-c4cn[nH]c4)cc23)cc(NC2CCCCC2)n1` [Example 171, 6-chloro-N-cyclohexyl-4-[5-(1H-pyrazol-4-yl)-1H-pyrrolo[2,3-b]pyridin-3-yl]pyridin-2-amine], which Ki is on record?
The Ki was < 10 nM.

For `O=C(NCCS(=O)(=O)NC1CCCC(Nc2cc(-c3c[nH]c4ncccc34)cc(Cl)n2)C1)c1cnccn1` (stereo not drawn) [Example 172, N-{2-[(3-{[6-chloro-4-(1H-pyrrolo[2,3-b]pyridin-3-yl)pyridin-2-yl]amino}cyclohexyl)sulfamoyl]ethyl}pyrazine-2-carboxamide], which Ki is on record?
Its Ki is < 10 nM.

`Clc1cc(-c2c[nH]c3ncc(Br)cc23)cc(NC2CCCCC2)n1` [Example 173, 4-(5-bromo-1H-pyrrolo[2,3-b]pyridin-3-yl)-6-chloro-N-cyclohexylpyridin-2-amine] was tested. Which Ki did it give?
Its Ki is < 10 nM.

How did the Ki turn out when `CC(=O)NC1CCC(CC2CCC(Nc3cc(-c4c[nH]c5ncccc45)cc(Cl)n3)CC2)CC1` (stereo not drawn) [Example 174, N-{4-[(4-{[6-chloro-4-(1H-pyrrolo[2,3-b]pyridin-3-yl)pyridin-2-yl]amino}cyclohexyl)methyl]cyclohexyl}acetamide] was run?
The Ki was < 10 nM.

How did the Ki turn out when `O=C(C1CC1)N1CCC(NC2CCC(Nc3cc(-c4c[nH]c5ncccc45)cc(Cl)n3)CC2)CC1` (stereo not drawn) [Example 175, {4-[(4-{[6-chloro-4-(1H-pyrrolo[2,3-b]pyridin-3-yl)pyridin-2-yl]amino}cyclohexyl)amino]piperidin-1-yl}(cyclopropyl)methanone] was run?
The Ki was < 10 nM.

For `Cn1cc(-c2cnc3[nH]cc(-c4cc(Cl)nc(NC5CCCCC5)c4)c3c2)cn1` [Example 176, 6-chloro-N-cyclohexyl-4-[5-(1-methyl-1H-pyrazol-4-yl)-1H-pyrrolo[2,3-b]pyridin-3-yl]pyridin-2-amine], which Ki is on record?
The Ki was < 10 nM.

Which Ki does the source give for `COc1cnc2[nH]cc(-c3cc(Cl)nc(NC4CCCCC4)c3)c2c1` [Example 178, 6-chloro-N-cyclohexyl-4-(5-methoxy-1H-pyrrolo[2,3-b]pyridin-3-yl)pyridin-2-amine] here?
The Ki was < 10 nM.

For `NCCS(=O)(=O)N[C@H]1CC[C@H](Nc2cc(-c3c[nH]c4ncccc34)cc(Cl)n2)CC1` [Example 179, 2-amino-N-(trans-4-{[6-chloro-4-(1H-pyrrolo[2,3-b]pyridin-3-yl)pyridin-2-yl]amino}cyclohexyl)ethanesulfonamide], which Ki is on record?
The Ki was < 10 nM.

How did the Ki turn out when `Oc1cnc2[nH]cc(-c3cc(Cl)nc(NC4CCCCC4)c3)c2c1` [Example 180, 3-[2-chloro-6-(cyclohexylamino)pyridin-4-yl]-1H-pyrrolo[2,3-b]pyridin-5-ol] was run?
Its Ki is < 10 nM.

Which Ki does the source give for `Clc1cc(-c2c[nH]c3ncccc23)cc(NC2CCC(C3CCCNC3)CC2)n1` (stereo not drawn) [Example 181, 6-chloro-N-[4-(piperidin-3-yl)cyclohexyl]-4-(1H-pyrrolo[2,3-b]pyridin-3-yl)pyridin-2-amine] here?
Its Ki is < 10 nM.

`Clc1cc(-c2c[nH]c3ncccc23)cc(NC2CCC(C3CCN(C4CCC4)CC3)CC2)n1` (stereo not drawn) [Example 182, 6-chloro-N-[4-(1-cyclobutylpiperidin-4-yl)cyclohexyl]-4-(1H-pyrrolo[2,3-b]pyridin-3-yl)pyridin-2-amine] was tested. Which Ki did it give?
Its Ki is < 10 nM.

Which Ki does the source give for `CS(=O)(=O)N1CCC(C2CCC(Nc3cc(-c4c[nH]c5ncccc45)cc(Cl)n3)CC2)CC1` (stereo not drawn) [Example 183, 6-chloro-N-{4-[1-(methylsulfonyl)piperidin-4-yl]cyclohexyl}-4-(1H-pyrrolo[2,3-b]pyridin-3-yl)pyridin-2-amine] here?
The Ki was < 10 nM.

Which Ki does the source give for `CN1CCC(C2CCC(Nc3cc(-c4c[nH]c5ncccc45)cc(Cl)n3)CC2)CC1` (stereo not drawn) [Example 184, 6-chloro-N-[4-(1-methylpiperidin-4-yl)cyclohexyl]-4-(1H-pyrrolo[2,3-b]pyridin-3-yl)pyridin-2-amine] here?
The Ki was < 10 nM.

For `CN1CCC(C2CCC(N(C)c3cc(-c4c[nH]c5ncccc45)cc(Cl)n3)CC2)CC1` (stereo not drawn) [Example 185, 6-chloro-N-methyl-N-[4-(1-methylpiperidin-4-yl)cyclohexyl]-4-(1H-pyrrolo[2,3-b]pyridin-3-yl)pyridin-2-amine], which Ki is on record?
Its Ki is < 10 nM.

`CS(=O)(=O)N1CCCC(C2CCC(Nc3cc(-c4c[nH]c5ncccc45)cc(Cl)n3)CC2)C1` (stereo not drawn) [Example 186, 6-chloro-N-{4-[1-(methylsulfonyl)piperidin-3-yl]cyclohexyl}-4-(1H-pyrrolo[2,3-b]pyridin-3-yl)pyridin-2-amine] was tested. Which Ki did it give?
Its Ki is < 10 nM.

`Clc1cc(-c2c[nH]c3ncc(-c4cnn(CCN5CCOCC5)c4)cc23)cc(NC2CCCCC2)n1` [Example 187, 6-chloro-N-cyclohexyl-4-(5-{1-[2-(morpholin-4-yl)ethyl]-1H-pyrazol-4-yl}-1H-pyrrolo[2,3-b]pyridin-3-yl)pyridin-2-amine] was tested. Which Ki did it give?
The Ki was < 10 nM.

How did the Ki turn out when `O=C(C1CC1)N1CCCC(C2CCC(Nc3cc(-c4c[nH]c5ncccc45)cc(Cl)n3)CC2)C1` (stereo not drawn) [Example 188, [3-(4-{[6-chloro-4-(1H-pyrrolo[2,3-b]pyridin-3-yl)pyridin-2-yl]amino}cyclohexyl)piperidin-1-yl](cyclopropyl)methanone] was run?
Its Ki is < 10 nM.

Which Ki does the source give for `Clc1cc(-c2c[nH]c3ncccc23)cc(NC2CCC(C3CCCN(C4CCC4)C3)CC2)n1` (stereo not drawn) [Example 189, 6-chloro-N-[4-(1-cyclobutylpiperidin-3-yl)cyclohexyl]-4-(1H-pyrrolo[2,3-b]pyridin-3-yl)pyridin-2-amine] here?
The Ki was < 10 nM.

With `Clc1cc(-c2c[nH]c3ncccc23)cc(NC2CCC(C3CCNC3)CC2)n1` (stereo not drawn) [Example 190, 6-chloro-N-[4-(pyrrolidin-3-yl)cyclohexyl]-4-(1H-pyrrolo[2,3-b]pyridin-3-yl)pyridin-2-amine] as the molecule, how does the Ki read?
Its Ki is < 10 nM.

Which Ki does the source give for `CN1CCC(N2CCC(Nc3cc(-c4c[nH]c5ncccc45)cc(Cl)n3)CC2)CC1` [Example 191, N-[6-chloro-4-(1H-pyrrolo[2,3-b]pyridin-3-yl)pyridin-2-yl]-1′-methyl-1,4′-bipiperidin-4-amine] here?
Its Ki is < 10 nM.

With `O=C(NCCS(=O)(=O)N[C@H]1CC[C@H](Nc2cc(-c3c[nH]c4ncccc34)cc(Cl)n2)CC1)c1ccccc1` [Example 193, N-{2-[(trans-4-{[6-chloro-4-(1H-pyrrolo[2,3-b]pyridin-3-yl)pyridin-2-yl]amino}cyclohexyl)sulfamoyl]ethyl}benzamide] as the molecule, how does the Ki read?
The Ki was < 10 nM.
